For test [1], the target named is T1, Glycogen phosphorylase, muscle form (Oryctolagus cuniculus, UniProt P00489).
T1 sequence (P00489 whole entry): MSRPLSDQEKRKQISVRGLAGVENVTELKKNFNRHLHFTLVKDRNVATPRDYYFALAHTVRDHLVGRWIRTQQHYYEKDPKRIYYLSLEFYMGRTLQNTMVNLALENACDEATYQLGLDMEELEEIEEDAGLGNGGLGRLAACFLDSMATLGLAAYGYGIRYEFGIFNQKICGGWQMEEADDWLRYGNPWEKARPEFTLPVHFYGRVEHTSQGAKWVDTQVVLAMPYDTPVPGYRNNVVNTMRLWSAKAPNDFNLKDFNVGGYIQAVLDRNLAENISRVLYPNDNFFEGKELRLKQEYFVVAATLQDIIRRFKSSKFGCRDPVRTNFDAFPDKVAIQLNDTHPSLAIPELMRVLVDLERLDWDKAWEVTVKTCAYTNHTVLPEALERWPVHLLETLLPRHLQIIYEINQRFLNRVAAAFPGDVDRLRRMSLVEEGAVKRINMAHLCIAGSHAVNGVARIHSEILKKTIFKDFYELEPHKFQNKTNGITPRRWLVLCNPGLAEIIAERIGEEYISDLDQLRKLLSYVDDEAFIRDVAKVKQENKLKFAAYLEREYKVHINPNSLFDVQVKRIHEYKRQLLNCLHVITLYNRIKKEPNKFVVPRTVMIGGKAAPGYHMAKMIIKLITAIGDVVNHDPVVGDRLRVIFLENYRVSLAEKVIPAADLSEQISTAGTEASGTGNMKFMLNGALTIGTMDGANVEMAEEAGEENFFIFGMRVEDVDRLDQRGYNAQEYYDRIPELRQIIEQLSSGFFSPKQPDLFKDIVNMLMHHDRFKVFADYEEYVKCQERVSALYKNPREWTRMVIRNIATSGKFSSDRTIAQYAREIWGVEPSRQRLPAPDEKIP

Test [2] has as its target T2, Glycogen phosphorylase, muscle form (Oryctolagus cuniculus) (UniProt P00489).
T2 sequence (whole entry): T1 sequence (P00489 whole entry)
Description: Inhibition of rabbit muscle glycogen phosphorylase b at 625 uM.

The target in test [3] is T2, Glycogen phosphorylase, muscle form (Oryctolagus cuniculus). Nature of the test: Inhibition of rabbit muscle glycogen phosphorylase b.

Calls of active or inactive are those of the source. The rule behind the calls is not given here.

The molecule `OC[C@H]1O[C@@H](c2nc(-c3ccc4ccccc4c3)no2)[C@H](O)[C@@H](O)[C@@H]1O` registered a Ki in test [1] of 12 µM.

Take `CC(C)(C)c1ccc(-c2n[nH]c([C@@H]3O[C@H](CO)[C@@H](O)[C@H](O)[C@H]3O)n2)cc1`: in test [1], the Ki was 778 µM.

The molecule `OC[C@H]1O[C@@H](c2nc3cc4ccccc4cc3[nH]2)[C@H](O)[C@@H](O)[C@@H]1O` showed an inhibition constant Ki in test [1] of 2.1 µM.

`Nc1ccc(-c2n[nH]c([C@@H]3O[C@H](CO)[C@@H](O)[C@H](O)[C@H]3O)n2)cc1`: the affinity in test [1] corresponds to a Ki of 0.67 µM.

`O=[N+]([O-])c1cc(-c2n[nH]c([C@@H]3O[C@H](CO)[C@@H](O)[C@H](O)[C@H]3O)n2)cc([N+](=O)[O-])c1`: the inhibition result in test [2] was “inactive”.

On to `CC(C)(C)c1n[nH]c([C@@H]2O[C@H](CO)[C@@H](O)[C@H](O)[C@H]2O)n1`, for which the inhibition result in test [2] is “inactive”.

With `Cc1ccc(-c2n[nH]c([C@@H]3O[C@H](CO)[C@@H](O)[C@H](O)[C@H]3O)n2)cc1`, the Ki in test [1] amounted to 1.7 µM.

As for `Cc1n[nH]c([C@@H]2O[C@H](CO)[C@@H](O)[C@H](O)[C@H]2O)n1`, in test [1], affinity was put at a Ki of 499 µM.

With `O=C(O)c1ccc(-c2n[nH]c([C@@H]3O[C@H](CO)[C@@H](O)[C@H](O)[C@H]3O)n2)cc1`, the inhibition entry in test [2] was “inactive”.

Molecule `OC[C@H]1O[C@@H](c2nc(-c3ccccn3)n[nH]2)[C@H](O)[C@@H](O)[C@@H]1O` registered a Ki in test [1] of 707 µM.

As to `O=[N+]([O-])c1ccc(-c2n[nH]c([C@@H]3O[C@H](CO)[C@@H](O)[C@H](O)[C@H]3O)n2)cc1`, in test [1], the Ki turned out to be 33.5 µM.

For the molecule `OC[C@H]1O[C@@H](c2nc(-c3ccc(C(F)(F)F)cc3)n[nH]2)[C@H](O)[C@@H](O)[C@@H]1O`, the Ki in test [1] was 111 µM.

Consider `Cc1nc([C@@H]2O[C@H](CO)[C@@H](O)[C@H](O)[C@H]2O)no1`, for which, in test [3], the inhibition result is “inactive”.

Molecule `OC[C@H]1O[C@@H](c2nc(-c3ccccc3)no2)[C@H](O)[C@@H](O)[C@@H]1O` returned a Ki in test [1] of 27 µM.

For the molecule `Cc1cc(C)cc(-c2n[nH]c([C@@H]3O[C@H](CO)[C@@H](O)[C@H](O)[C@H]3O)n2)c1`, the Ki in test [1] stood at 39.7 µM.

Regarding `COc1ccc(-c2n[nH]c([C@@H]3O[C@H](CO)[C@@H](O)[C@H](O)[C@H]3O)n2)cc1`, the Ki in test [1] was 1.9 µM.

The molecule `OC[C@H]1O[C@@H](c2nc(-c3ccc(O)cc3)n[nH]2)[C@H](O)[C@@H](O)[C@@H]1O` gave a Ki in test [1] of 2.9 µM.

As to `Nc1cc(N)cc(-c2n[nH]c([C@@H]3O[C@H](CO)[C@@H](O)[C@H](O)[C@H]3O)n2)c1`, the Ki in test [1] worked out at 14 µM.

The Ki is the equilibrium dissociation constant of an inhibitor or competing ligand from its target. A higher Ki goes with a looser hold on the target.

Source of the values: ChEMBL document CHEMBL3232824, “New synthesis of 3-(β-D-glucopyranosyl)-5-substituted-1,2,4-triazoles, nanomolar inhibitors of glycogen phosphorylase” (Eur J Med Chem, 2014).
